Measured values from ChEMBL document CHEMBL1201862, “PubChem BioAssay data set” (2004).
Activity calls are given as the source filed them.

Tests used:
[1] = target: T1, Oxysterols receptor LXR-beta (Homo sapiens, UniProt P55055); format: functional, cell-based
T1 sequence (P55055 whole entry): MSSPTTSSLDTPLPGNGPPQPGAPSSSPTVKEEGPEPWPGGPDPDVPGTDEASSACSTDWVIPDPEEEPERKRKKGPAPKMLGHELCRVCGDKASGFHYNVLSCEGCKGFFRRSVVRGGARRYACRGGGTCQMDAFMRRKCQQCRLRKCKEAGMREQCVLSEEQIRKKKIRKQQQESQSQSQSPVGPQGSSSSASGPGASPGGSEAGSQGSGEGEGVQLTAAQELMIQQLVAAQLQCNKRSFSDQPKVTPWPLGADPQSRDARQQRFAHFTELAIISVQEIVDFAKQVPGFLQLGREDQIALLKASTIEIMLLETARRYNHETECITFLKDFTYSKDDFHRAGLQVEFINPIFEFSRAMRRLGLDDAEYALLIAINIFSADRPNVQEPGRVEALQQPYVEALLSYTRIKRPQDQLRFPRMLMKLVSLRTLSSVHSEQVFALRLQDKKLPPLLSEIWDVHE

[2] = Luminescence-based cell-based high throughput dose response assay to identify activators of the DAF-12 from the parasite S. stercoralis (ssDAF-12).; format: functional
cells [3] = test: cells
[4] = target: T1, Oxysterols receptor LXR-beta; format: functional, cell-based; remark: listed apart in the source
[5] = target: NAD-dependent protein deacylase sirtuin-5, mitochondrial (Homo sapiens, UniProt Q9NXA8); test: blockers of sirtuin-5 peptide desuccinylation – biochemical, fluorescence imaging, cherry-pick, set 6, dose response (AID 720597)
[6] = viability loss in HEK293T cells – cell-based, CellTiter-Glo luminescence, dry powder, set 6, cytotoxicity control, dose response (AID 651949); format: functional; details: HEK293
[7] = target: Arf-GAP with SH3 domain, ANK repeat and PH domain-containing protein 1 (Homo sapiens, UniProt Q9ULH1); format: functional;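 further: biochemical fluorescence polarization dose–response screen measuring inhibition of ASAP1; ASAP1 GAP domain stimulating GTP hydrolysis by truncated human ARF1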
Galanin receptor type 3 = Galanin receptor type 3 (Homo sapiens, UniProt O60755); test: Fluorescence-based cell-based primary high throughput dose response assay to identify antagonists of the Galanin Receptor 3 (GalR3).; format: functional
cells [8] = format: functional, cell-based; details: HEK-CNG
[9] = target: T2, Trace amine-associated receptor 1 (Homo sapiens, UniProt Q96RJ0); test: Fluorescence-based cell-based high throughput dose response assay to identify antagonists of the human trace amine associated receptor 1 (TAAR1).; format: functional
T2 sequence (Q96RJ0 whole entry): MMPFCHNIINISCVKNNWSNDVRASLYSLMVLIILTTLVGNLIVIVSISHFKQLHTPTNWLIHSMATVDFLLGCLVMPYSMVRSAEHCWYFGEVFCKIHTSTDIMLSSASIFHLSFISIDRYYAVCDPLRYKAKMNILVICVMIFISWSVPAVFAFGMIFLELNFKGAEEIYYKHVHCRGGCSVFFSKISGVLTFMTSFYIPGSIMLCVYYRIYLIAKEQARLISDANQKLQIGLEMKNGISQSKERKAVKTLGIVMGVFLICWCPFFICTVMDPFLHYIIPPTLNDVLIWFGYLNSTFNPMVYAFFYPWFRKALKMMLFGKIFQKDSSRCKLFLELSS

[10] = Counterscreen for antagonists of the human trace amine associated receptor 1 (hTAAR1): Fluorescence-based cell-based high throughput dose response assay to identify nonselective Ga16 antagonists.; format: functional
[11] = target: T2, Trace amine-associated receptor 1; test: Counterscreen for antagonists of the human trace amine associated receptor 1 (hTAAR1): Fluorescence-based cell-based high throughput dose response assay to identify TAAR1 Agonists.; format: functional
[12] = Counterscreen for […] of the human trace amine associated receptor 1 (TAAR1): Fluorescence-based cell-based high throughput dose response assay to identify nonselective Ga16 agonists.; format: functional
[13] = target: T3, Matrix metalloproteinase-14 (Homo sapiens, UniProt P50281); test: Dose Response confirmation of uHTS hits for a small molecule inhibitors of MT1-MMP activation in a fluorescence assay set 1.; format: functional
[14] = target: T3, Matrix metalloproteinase-14; test: SAR confirmation of uHTS hits for a small molecule inhibitors of MT1-MMP activation in a fluorescence assay.; format: functional
[15] = target: Botulinum neurotoxin type F (Clostridium botulinum, UniProt P30996); test: High-throughput multiplex microsphere dose response for inhibitors of toxin protease, specifically Botulinum neurotoxin light chain F protease, compounds from Cherry Pick 02.; format: functional; details: read-out: EC50_MICROM
Lethal factor = Lethal factor (Bacillus anthracis, UniProt P15917); test: High-throughput multiplex microsphere dose response for inhibitors of toxin protease, specifically Lethal Factor protease, compounds from Cherry Pick 02.; format: functional; details: read-out: EC50_MICROM
Sequence of Lethal factor (P15917 whole entry): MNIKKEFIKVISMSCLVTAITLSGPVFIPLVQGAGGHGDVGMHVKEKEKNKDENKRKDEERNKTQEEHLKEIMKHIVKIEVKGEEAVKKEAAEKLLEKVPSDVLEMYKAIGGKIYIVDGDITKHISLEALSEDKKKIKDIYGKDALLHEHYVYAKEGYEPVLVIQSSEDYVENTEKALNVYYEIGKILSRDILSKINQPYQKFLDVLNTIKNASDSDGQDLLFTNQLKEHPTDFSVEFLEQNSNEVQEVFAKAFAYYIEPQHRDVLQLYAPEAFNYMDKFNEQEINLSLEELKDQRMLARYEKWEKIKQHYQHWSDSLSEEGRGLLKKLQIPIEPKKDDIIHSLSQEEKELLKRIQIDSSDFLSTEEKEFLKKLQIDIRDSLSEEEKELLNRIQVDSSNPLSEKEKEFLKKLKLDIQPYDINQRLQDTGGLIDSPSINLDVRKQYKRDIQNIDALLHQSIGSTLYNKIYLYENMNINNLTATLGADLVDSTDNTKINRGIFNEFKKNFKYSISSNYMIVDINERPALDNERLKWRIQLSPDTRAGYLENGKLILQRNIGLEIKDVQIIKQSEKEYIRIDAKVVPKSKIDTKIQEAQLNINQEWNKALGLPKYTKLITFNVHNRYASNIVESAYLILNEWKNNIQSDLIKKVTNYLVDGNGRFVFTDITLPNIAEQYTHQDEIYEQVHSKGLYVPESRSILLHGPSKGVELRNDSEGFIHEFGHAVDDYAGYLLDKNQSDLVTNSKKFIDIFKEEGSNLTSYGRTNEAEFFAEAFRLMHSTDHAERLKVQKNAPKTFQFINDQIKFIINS

Sequence of Arf-GAP with SH3 domain, ANK repeat and PH domain-containing protein 1 (Q9ULH1 whole entry, the tested form may be a part): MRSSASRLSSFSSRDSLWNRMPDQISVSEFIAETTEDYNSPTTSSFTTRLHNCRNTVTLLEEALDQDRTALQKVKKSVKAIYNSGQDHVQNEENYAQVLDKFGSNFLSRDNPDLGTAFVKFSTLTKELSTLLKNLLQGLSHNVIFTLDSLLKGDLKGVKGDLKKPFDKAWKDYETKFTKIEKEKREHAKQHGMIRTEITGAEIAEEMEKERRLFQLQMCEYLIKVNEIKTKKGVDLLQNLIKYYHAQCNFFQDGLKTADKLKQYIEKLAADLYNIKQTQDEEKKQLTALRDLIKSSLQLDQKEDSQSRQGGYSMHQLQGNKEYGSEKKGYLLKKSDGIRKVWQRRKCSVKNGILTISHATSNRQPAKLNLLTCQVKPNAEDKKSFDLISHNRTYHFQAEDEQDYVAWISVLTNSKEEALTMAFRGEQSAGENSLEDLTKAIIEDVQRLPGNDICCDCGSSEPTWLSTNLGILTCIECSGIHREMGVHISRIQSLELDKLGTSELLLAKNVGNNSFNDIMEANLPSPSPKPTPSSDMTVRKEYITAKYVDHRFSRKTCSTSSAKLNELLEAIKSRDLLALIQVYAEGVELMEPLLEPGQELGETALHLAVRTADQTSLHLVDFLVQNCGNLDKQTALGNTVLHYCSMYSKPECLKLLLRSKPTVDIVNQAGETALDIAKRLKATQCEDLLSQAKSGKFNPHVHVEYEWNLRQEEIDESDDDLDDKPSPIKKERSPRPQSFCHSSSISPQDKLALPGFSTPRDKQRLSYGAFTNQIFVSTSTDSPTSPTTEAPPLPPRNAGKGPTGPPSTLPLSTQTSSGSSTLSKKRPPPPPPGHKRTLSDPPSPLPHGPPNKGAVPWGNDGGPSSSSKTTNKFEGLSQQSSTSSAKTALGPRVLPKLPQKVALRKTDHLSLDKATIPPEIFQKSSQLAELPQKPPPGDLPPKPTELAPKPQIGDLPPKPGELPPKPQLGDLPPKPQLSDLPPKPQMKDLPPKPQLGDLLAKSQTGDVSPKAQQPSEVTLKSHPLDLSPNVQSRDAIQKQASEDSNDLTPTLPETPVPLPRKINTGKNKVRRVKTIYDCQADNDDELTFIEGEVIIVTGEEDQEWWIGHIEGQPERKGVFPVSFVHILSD
Sequence of Galanin receptor type 3 (O60755 whole entry): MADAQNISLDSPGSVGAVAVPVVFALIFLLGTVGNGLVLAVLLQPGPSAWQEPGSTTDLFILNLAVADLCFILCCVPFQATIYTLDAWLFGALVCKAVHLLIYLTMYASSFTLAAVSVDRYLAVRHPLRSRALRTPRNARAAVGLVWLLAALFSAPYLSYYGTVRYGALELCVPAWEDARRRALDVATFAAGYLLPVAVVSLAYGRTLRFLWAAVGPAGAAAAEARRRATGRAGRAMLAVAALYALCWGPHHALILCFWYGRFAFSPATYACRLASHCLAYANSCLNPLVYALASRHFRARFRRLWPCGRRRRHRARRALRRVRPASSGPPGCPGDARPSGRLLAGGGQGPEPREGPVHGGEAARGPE
Sequence of NAD-dependent protein deacylase sirtuin-5, mitochondrial (Q9NXA8 whole entry): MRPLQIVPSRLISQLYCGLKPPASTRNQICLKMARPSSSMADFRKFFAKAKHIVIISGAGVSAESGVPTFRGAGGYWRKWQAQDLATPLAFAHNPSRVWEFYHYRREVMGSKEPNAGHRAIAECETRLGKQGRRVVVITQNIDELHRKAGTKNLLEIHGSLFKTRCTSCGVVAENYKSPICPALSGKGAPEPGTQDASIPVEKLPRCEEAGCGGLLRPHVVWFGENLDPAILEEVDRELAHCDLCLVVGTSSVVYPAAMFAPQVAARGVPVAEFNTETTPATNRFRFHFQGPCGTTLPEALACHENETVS
Sequence of Botulinum neurotoxin type F (P30996 1-436 limits assumed): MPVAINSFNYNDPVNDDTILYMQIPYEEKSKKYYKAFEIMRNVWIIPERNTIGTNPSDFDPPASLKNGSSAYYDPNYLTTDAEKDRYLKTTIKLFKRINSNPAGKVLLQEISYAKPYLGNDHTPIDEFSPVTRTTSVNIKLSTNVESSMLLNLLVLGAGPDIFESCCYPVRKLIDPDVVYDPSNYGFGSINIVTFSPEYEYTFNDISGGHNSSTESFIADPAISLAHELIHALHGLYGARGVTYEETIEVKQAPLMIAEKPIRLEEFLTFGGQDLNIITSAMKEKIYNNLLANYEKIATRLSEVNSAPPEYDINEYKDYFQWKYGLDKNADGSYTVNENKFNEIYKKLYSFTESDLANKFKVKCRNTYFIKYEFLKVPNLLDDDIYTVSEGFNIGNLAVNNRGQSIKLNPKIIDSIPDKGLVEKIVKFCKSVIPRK

Compound: CCOC(=O)CSc1nc(-c2ccncc2)ccc1C#N
- EC50 [1]: > 67.5 µM (inactive)

Compound: COc1ccc(Nc2nc(-c3ccccc3)cs2)cc1
- IC50 [2]: > 67.5 µM (inactive)
- EC50 (cells [3]): > 67.5 µM (inactive)
- EC50 [4]: > 67.5 µM (inactive)

Compound: CCCNC(=O)N1[C@@H](CO)[C@H](c2ccccc2)C12CN(C(=O)CC1CC1)C2
- AC50 [5]: 24.6 µM (active)

Compound: c1ccc(CSc2nnc(C3CCCC3)o2)cc1
- AC50 [6]: > 52 µM (inactive)

Compound: Clc1ccc(OCc2nn3c(-c4ccco4)nnc3s2)c(Cl)c1
- IC50 [7]: 22.8 µM (inactive)

Compound: Cc1nn(C)c(Nc2ccc(Br)cc2)c1Br
- IC50 (Galanin receptor type 3): 0.155 µM (active)
- EC50 (cells [8]): > 29.9 µM (inactive)

Compound: COc1ccc(-c2cc(C(=O)NCC(C)C)no2)cc1
- IC50 [9]: > 29.9 µM (inactive)
- IC50 [10]: > 29.9 µM (inactive)
- EC50 [11]: > 29.9 µM (inactive)
- EC50 [12]: > 29.9 µM (inactive)

Compound: COc1ccc(C)cc1Nc1nc(-c2c(C)[nH]c3ccccc23)cs1
- IC50 [13]: 22.1 µM (inactive)
- IC50 [14]: > 80 µM (inactive)

Compound: O=C(COC(=O)c1cncc(Br)c1)NC12CC3CC(CC(C3)C1)C2
- EC50 [15]: > 20 µM (inactive)
- EC50 (Lethal factor): 11.5 µM (active)
